Assay results taken from patent US5591758A, “Organic nitrates, processes for their preparation and their use in the treatment of cardiovascular diseases” (Laboratoires Hoechst, SA, priority 1991, dated 1997).
Counter-ions that a name gives are not always drawn.

How the values were obtained:
anesthetised pigs = assay: Haemodynamic effects on anesthetised pigs; assay type: in vivo, pigs ("German land" race)
Protocol: (§1) Haemodynamic effects of the compounds according to the invention on anesthetised pigs or dogs
Pigs are of "German land" race (20-26 kg) and are used after fasting overnight.
In the case of pigs, sedation, analgesia and anesthesia are induced by ketamine HCl (20 mg/kg i.m.), methonidate HCl (10 mg/kg i.m.), xylacine HCl (3 mg/kg i.m.) and sodium pentobarbitol (25-30 mg/kg as bolus i.v. or 0.16 mg/kg/min as i.v. perfusion).
(§2) The pigs or dogs are placed under artificial respiration in ambient air. Analysis of the blood gases (pO2, pCO2) is carried out at regular intervals and oxygen can be supplied via the respirator, if necessary.
(§3) The haemodynamic parameters recorded include the left ventricular pressure (LVP; Millar PC350 Tip catheter inserted via the carotid artery), systemic blood pressure (BPs, BPd; full catheter in a femoral artery), the end pressure of the left ventricular diastole (LVEDP), the ventricular contractility (LVPdp/dtmax) and the heart rate (HR).
The haemodynamic variables are recorded continuously for 1 to 3 hours, as a function of the period of action of the compound.
(§4) The effects of the compounds studied are shown as the absolute difference with respect to the base value (bv) measured before administration of the compounds and are shown in Table VII (a,b,c).
(§5) An antianginal activity is estimated by a fall in the BPs and the LVEDP (fall in venous return).

thoracic aorta = assay: Vasorelaxant effect on isolated vessels (rat thoracic aorta rings without endothelium, precontracted with noradrenalin); parameters: species or system Wistar rats; details: for Emax: Rattus norvegicus, maximum inhibition of noradrenalin effect, 10^-8 to 10^-4 M substance, read-out: Maximum Relaxation; for IC50: rat aorta, 10^-7 M noradrenalin contraction
Protocol: Vasorelaxant effect of the compounds according to the invention on isolated vessels.
Adult Wistar rats weighing between 250 and 350 g are anaesthetised by intraperitoneal injection of sodium pentobarbital (30 mg/kg). The thoracic aorta is rapidly removed and placed in a refrigerated and oxygenated solution of bicarbonate buffer of the Krebs-Ringer type (composition [mM]: NaCl, 118; KCl, 4.7; CaCl2, 2.5; MgSO4, 1.2; KH2 PO4, 1.2; NaHCO3, 25.0; disodium calcium salt of EDTA, 0.026; glucose 11.1). The aorta is dissected with the aim of removing the connective tissue and then cut into 6 rings (length 5-10 mm). The endothelium is removed by moderate abrasion of the intimal surface of the aortic segments with the aid of a pair of tweezers. These segments are then placed between two hooks in an isolated organ cell filled with 25 ml of bicarbonate buffer (pH 7.4), thermostat-controlled at 37° C. and oxygenated with the aid of a 95% O2 /5% CO2 mixture (pH 7.4). One of the hooks is fixed to a fixed point, while the second is connected to a transducer with the aim of measuring the variations in isometric voltage (expressed in grams). After an equilibration period of 30 min., the segments are progressively withdrawn so as to attain the level of base voltage for which the contractor response to noradrenalin (10^-7 M) is maximum (optimum voltage; average 2 g). The absence of endothelium is verified by addition of a single concentration of acetylcholine (10^-6 M), after precontraction of the vessels by noradrenalin (10^-7 M). The integrity of the vascular smooth muscle is also verified by adding a single concentration of a vasodilator whose response is independent of the presence of the endothelium, SIN-1 (10^-5 M). After this initial procedure, the aortas are washed, equilibrated for a period of 30 min and then recontracted (10^-7 M noradrenalin). The relaxant effect of the substance to be tested is then evaluated by adding increasing concentrations of this substance (from 10^-8 to 10^-4 M). The maximum inhibition of the concentration caused by noradrenalin (expressed as a percentage) is then calculated ("maximum relaxation"). When this maximum relaxation is greater than 50%, the concentration of substance tested producing a 50% inhibition of the maximum contraction (IC50) is calculated. Table V below collates the IC50 and the maximum relaxation percentages for the various compounds tested.

anesthetised dogs = assay: Haemodynamic effects on anesthetised dogs; assay type: in vivo, dogs (labrador/harrier cross)
Protocol: as §1
The dogs, weighing between 16 and 26 kg, are the progeny of a labrador/harrier cross.
In the case of dogs the anesthesia is induced by sodium pentobarbitol (45 mg/jg i.v.) and maintained with an i.v. perfusion (flow rate of 8 mg/kg/h).
as §2, §3
Following an equilibration period of the order of 45 minutes, the compounds studied are administered intraduodenally (i.d.) or intraveinously (i.v.) to several animals (1 to 4). The haemodynamic variables are recorded continuously for 1 to 3 hours, as a function of the period of action of the compound.
as §4, §5

| SMILES | Emax (thoracic aorta) [%] | IC50 (thoracic aorta) [µM] | BPs (min), period of action (anesthetised dogs; dogs, 3 mg/kg i.d.) [min] | BPs, difference to base value (anesthetised dogs; dogs, 3 mg/kg i.d.) [mmHg] | LVEDP (min), period of action (anesthetised dogs; dogs, 3 mg/kg i.d.) [min] | LVEDP, difference to base value (anesthetised dogs; dogs, 3 mg/kg i.d.) | other results |
| --- | --- | --- | --- | --- | --- | --- | --- |
| O=C(O[C@@H]1CO[C@H]2[C@@H]1OC[C@@H]2O[N+](=O)[O-])c1ccccc1SSc1ccccc1C(=O)O[C@@H]1CO[C@H]2[C@@H]1OC[C@@H]2O[N+](=O)[O-] [Compound 29, Bis[5-O-[(2-thio)benzoyl]-2-O-nitro-1,4:3,6-dianhydro-D-glucitol]] |  |  |  |  |  |  | BPs (min), period of action (anesthetised pigs; pigs, 3 mg/kg i.v.): 10 min; BPs, difference to base value (anesthetised pigs; pigs, 3 mg/kg i.v.): -42 mmHg; LVRDP (min), period of action (anesthetised pigs; pigs, 3 mg/kg i.v.): 16 min; LVRDP, difference to base value (anesthetised pigs; pigs, 3 mg/kg i.v.): -2,0 mmHg |
| C[C@H](NC(=O)[C@@H]1CSCN1)C(=O)N[C@H]1CO[C@H]2[C@@H]1OC[C@@H]2O[N+](=O)[O-] [Compound 62, 5-[[2-[[(4-L-thiazolidinyl)carbonyl]amino]-1-((2S)-2-methyl)-oxoethyl]amino]-5-deoxy-2-O-nitro-1,4:3,6-dianhydro-L-iditol monohydrochloride] | 72 | 55 | > 30 | -35 |  |  |  |
| CC(=O)NCSC[C@H](N)C(=O)O[C@@H]1CO[C@H]2[C@@H]1OC[C@@H]2O[N+](=O)[O-] [Compound 27, S-[(Acetylamino)methyl]-L-cysteine ester of 2-O-nitro-1,4:3,6-dianhydro-D-glucitol monohydrochloride] | 14 | > 100 |  |  |  |  | BPs (min), period of action (anesthetised dogs; dogs, 3 mg/kg i.v.): > 90 min; BPs, difference to base value (anesthetised dogs; dogs, 3 mg/kg i.v.): -15 mmHg; LVEDP (min), period of action (anesthetised dogs; dogs, 3 mg/kg i.v.): > 90 min; LVEDP, difference to base value (anesthetised dogs; dogs, 3 mg/kg i.v.): -1,0 mmHg |
| CC(C)(C)OC(=O)N1CSC[C@H]1C(=O)O[C@@H]1CO[C@H]2[C@@H]1OC[C@@H]2O[N+](=O)[O-] [Compound 24, 5-O-[(3-t-Butoxycarbonyl-4-L-thiazolidinyl)carbonyl]-2-O-nitro-1,4:3,6-dianhydro-D-glucitol] | 100 | 20 |  |  |  |  | BPs (min), period of action (anesthetised dogs; dogs, 3 mg/kg i.v.): > 30 min; BPs, difference to base value (anesthetised dogs; dogs, 3 mg/kg i.v.): -10 mmHg; LVEDP (min), period of action (anesthetised dogs; dogs, 3 mg/kg i.v.): 10 min; LVEDP, difference to base value (anesthetised dogs; dogs, 3 mg/kg i.v.): 1,0 mmHg |
| CC(=O)NCSC[C@H](NC(=O)OC(C)(C)C)C(=O)N[C@H]1CO[C@H]2[C@@H]1OC[C@H]2O[N+](=O)[O-] [Compound 41, S-[(Acetylamino)methyl]-N-[(t-butoxy)carbonyl]-L-cysteine amide of 2-amino-2-deoxy-5-O-nitro-1,4:3,6-dianhydro-D-glucitol] | 70 | 63 | > 180 | -25 | 0 | 0,0 mmHg |  |
| CC(C)(C)OC(=O)N1CSC[C@H]1C(=O)NCC(=O)O[C@H]1CO[C@H]2[C@@H]1OC[C@H]2O[N+](=O)[O-] [Compound 72, 2-O-[2-[[(3-t-butoxycarbonyl-4-L-thiazolidinyl)carbonyl]amino]-1-oxoethyl]-5-O-nitro-1,4:3,6-dianhydro-D-glucitol] | 67 | 64 |  |  |  |  | BPs (min), period of action (anesthetised dogs; dogs, 10 mg/kg i.v.): 0 min; BPs, difference to base value (anesthetised dogs; dogs, 10 mg/kg i.v.): 0 mmHg; LVEDP (min), period of action (anesthetised dogs; dogs, 10 mg/kg i.v.): 0 min; LVEDP, difference to base value (anesthetised dogs; dogs, 10 mg/kg i.v.): 0,0 mmHg |
| CSCC[C@H](NC(=O)[C@@H]1CSCN1C(=O)OC(C)(C)C)C(=O)N[C@H]1CO[C@H]2[C@@H]1OC[C@@H]2O[N+](=O)[O-] [Compound 67, 5-[[2-[[(3-t-butoxycarbonyl-4-L-thiazolidinyl)carbonyl]amino]-1-((2S)-2-(2'-thiomethyl)-ethyl)-oxoethyl]amino]-5-deoxy-2-O-nitro-1,4:3,6-dianhydro-L-iditol] | 100 | 9 | > 90 | -15 | > 90 | -1,5 mmHg |  |
| CC(C)(C)OC(=O)N1CSC[C@H]1C(=O)N1CSC[C@H]1C(=O)N[C@H]1CO[C@H]2[C@@H]1OC[C@@H]2O[N+](=O)[O-] [Compound 77, 5-[[[(4R)-N-[(3-t-butoxycarbonyl-4-L-thiazolidinyl)carbonyl]-4-thiazolidinyl]carbonyl]amino]-5-deoxy-2-O-nitro-1,4:3,6-dianhydro-L-iditol] | 97 | 40 | > 180 | -35 | > 180 | -2,0 mmHg |  |
| CC(C)(C)OC(=O)NCC(=O)O[C@H]1CO[C@H]2[C@@H]1OC[C@H]2O[N+](=O)[O-] [Compound 1, N-[(t-Butoxy)carbonyl]glycine ester of 5-O-nitro-1,4:3,6-dianhydro-D-glucitol] | 83 | 32 |  |  |  |  | BPs (min), period of action (anesthetised dogs; dogs, 3 mg/kg i.v.): 10 min; BPs, difference to base value (anesthetised dogs; dogs, 3 mg/kg i.v.): 5 mmHg; LVEDP (min), period of action (anesthetised dogs; dogs, 3 mg/kg i.v.): 10 min; LVEDP, difference to base value (anesthetised dogs; dogs, 3 mg/kg i.v.): 1,0 mmHg |
| O=C(CNC(=O)[C@@H]1CCCN1)N[C@H]1CO[C@H]2[C@@H]1OC[C@@H]2O[N+](=O)[O-] [Compound 49, 5-[[2-[[((2S)-2-pyrrolidinyl)carbonyl]amino]-1-oxoethyl]amino]-5-deoxy-2-O-nitro-1,4:3,6-dianhydro-L-iditol monohydrochloride] | 100 | 38 |  |  |  |  | BPs (min), period of action (anesthetised dogs; dogs, 1,1 mg/kg i.d.): > 240 min; BPs, difference to base value (anesthetised dogs; dogs, 1,1 mg/kg i.d.): -32 mmHg |
| CC(=O)NCSc1ccccc1C(=O)O[C@H]1CO[C@H]2[C@@H]1OC[C@H]2O[N+](=O)[O-] [Compound 23] |  |  |  |  |  |  | BPs, difference to base value (anesthetised pigs; pigs, 10,0 mg/kg i.d.): 0 mmHg; LVRDP, difference to base value (anesthetised pigs; pigs, 10,0 mg/kg i.d.): 0 mmHg |
| O=C(CNC(=O)[C@@H]1CSCN1)N[C@H]1CO[C@H]2[C@@H]1OC[C@H]2O[N+](=O)[O-] [Compound 71, 2-[[2-[[(4-L-thiazolidinyl)carbonyl]]amino]-1-oxoethyl]amino]-2-deoxy-5-O-nitro-1,4:3,6-dianhydro-D-glucitol monohydrochloride] | 66 | 70 | 0 | 0 | > 60 | -5,5 mmHg |  |
| CC(C)[C@H](NC(=O)OC(C)(C)C)C(=O)N[C@H]1CO[C@H]2[C@@H]1OC[C@@H]2O[N+](=O)[O-] [Compound 9, N-[(t-Butoxy)carbonyl]-L-valine amide of 5-amino-5-deoxy-2-O-nitro-1,4:3,6-dianhydro-L-iditol] | 70 | 80 | > 60 | 5 | 0 | 0,0 mmHg |  |
| N[C@@H](Cc1ccccc1)C(=O)N[C@H]1CO[C@H]2[C@@H]1OC[C@@H]2O[N+](=O)[O-] [Compound 12, L-phenylalanine amide of 5-amino-5-deoxy-2-O-nitro-1,4:3,6-dianhydro-L-iditol monohydrochloride] | 100 | 2.5 | > 240 | -30 |  |  |  |
